Data: PubChem BioAssay (NCI)
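Values below derive from 48-hour exposures of cells grown in 96-well plates, with endpoints linearly interpolated between the two concentrations bracketing the appropriate inhibition level. Definition used: TGI = concentration required for complete inhibition of growth.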

Columns and labels:
Experiment in all cases: inhibition of tumour cell growth, NCI panel, 48 h
[1] = test system: U251 CNS
[2] = test system: HT29 colon
[3] = test system: HOP-92 NSCLC
[4] = test system: SF-268 CNS
[5] = test system: XF 498 CNS
[6] = test system: TK-10 renal
[7] = test system: MALME-3M melanoma
[8] = test system: SW-620 colon
[9] = test system: LXFL 529 NSCLC
[10] = test system: NCI-H23 lung
[11] = test system: SNB-75 CNS
[12] = test system: 786-0 renal
[13] = test system: SK-OV-3 ovarian
[14] = test system: HL-60(TB) leukemia
[15] = test system: SF-295 CNS
[16] = test system: OVCAR-3 ovarian
[17] = test system: KM20L2 colon
[18] = test system: UACC-62 melanoma
[19] = test system: M14 melanoma
[20] = test system: EKVX NSCLC
[21] = test system: COLO 205 colon
[22] = test system: A549 NSCLC
[23] = test system: RXF-631 renal
[24] = test system: NCI-H460 lung
[25] = test system: DMS 114 small cell lung
[26] = test system: SNB-19 CNS
[27] = test system: SN12C renal
[28] = test system: UO-31 renal
[29] = test system: IGROV1 ovarian
[30] = test system: HCT-15 colon
[31] = test system: HCC-2998 colon
[32] = test system: SNB-78 CNS
[33] = test system: HOP-18 NSCLC
[34] = test system: DLD-1 colon
[35] = test system: M19-MEL melanoma
[36] = test system: RXF 393 renal
[37] = test system: OVCAR-8 ovarian
[38] = test system: ACHN renal
[39] = test system: SK-MEL-28 melanoma
[40] = test system: CAKI-1 renal
[41] = test system: K-562 leukemia
[42] = test system: LOX IMVI melanoma
[43] = test system: DMS 273 small cell lung
[44] = test system: OVCAR-4 ovarian
[45] = test system: HOP-62 NSCLC
[46] = test system: MOLT-4 leukemia
[47] = test system: UACC-257 melanoma
[48] = test system: SK-MEL-5 melanoma
[49] = test system: RPMI-8226 leukemia
[50] = test system: SF-539 CNS
[51] = test system: CCRF-CEM leukemia
[52] = test system: SK-MEL-2 melanoma
[53] = test system: KM12 colon
[54] = test system: NCI-H522 lung
[55] = test system: OVCAR-5 ovarian
[56] = test system: A498 renal
[57] = test system: HCT-116 colon
[58] = test system: SR leukemia
[59] = test system: BT-549 breast
[60] = test system: DU-145 prostate
[61] = test system: MCF7 breast
[62] = test system: MDA-MB-231 breast
[63] = test system: T-47D breast
[64] = test system: MDA-N
[65] = test system: MDA-MB-435
[66] = test system: PC-3 prostate
[67] = test system: NCI-H226 lung
[68] = test system: HS 578T breast
[69] = test system: NCI/ADR-RES ovarian

CCOC(=O)C1(C)CCCCC(=O)N1 (stereo not given)
TGI [1]: > 100 µM
TGI [2]: > 100 µM
TGI [3]: > 100 µM
TGI [4]: > 100000 nM
TGI [5]: > 100 µM
TGI [6]: > 100 µM
TGI [7]: > 100 µM
TGI [8]: > 100 µM
TGI [9]: > 100 µM
TGI [10]: > 100 µM
TGI [11]: > 100 µM
TGI [12]: > 100 µM
TGI [13]: > 100 µM
TGI [14]: > 100 µM
TGI [15]: > 100000 nM
TGI [16]: > 100 µM
TGI [17]: > 100 µM
TGI [18]: > 100 µM
TGI [19]: > 100 µM
TGI [20]: > 100 µM
TGI [21]: > 100 µM
TGI [22]: > 100 µM
TGI [23]: > 100 µM
TGI [24]: > 100 µM
TGI [25]: > 100 µM
TGI [26]: > 100 µM
TGI [27]: > 100000 nM
TGI [28]: > 100 µM
TGI [29]: > 100 µM
TGI [30]: > 100000 nM
TGI [31]: > 100 µM
TGI [32]: > 100 µM
TGI [33]: > 100000 nM
TGI [34]: > 100 µM
TGI [35]: > 100 µM
TGI [36]: > 100 µM
TGI [37]: > 100 µM
TGI [38]: > 100 µM
TGI [39]: > 100 µM
TGI [40]: > 100000 nM
TGI [41]: > 100 µM
TGI [42]: > 100 µM
TGI [43]: > 100 µM
TGI [44]: > 100000 nM
TGI [45]: > 100 µM

Cc1ccc(S(=O)(=O)N/N=C(/c2nc3ccc([N+](=O)[O-])cc3[nH]c2=O)C(O)c2ccc(C(O)/C(=N\NS(=O)(=O)c3ccc(C)cc3)c3nc4ccc([N+](=O)[O-])cc4[nH]c3=O)cc2)cc1 (stereo not given)
TGI [1]: > 100 µM
TGI [46]: > 100 µM
TGI [2]: > 100 µM
TGI [3]: > 100 µM
TGI [47]: > 100 µM
TGI [5]: > 100 µM
TGI [6]: > 100 µM
TGI [7]: > 100 µM
TGI [8]: > 100 µM
TGI [9]: > 100 µM
TGI [10]: > 100 µM
TGI [11]: > 100 µM
TGI [48]: > 100000 nM
TGI [12]: > 100 µM
TGI [13]: > 100 µM
TGI [49]: > 100 µM
TGI [14]: 98.3 µM
TGI [50]: > 100000 nM
TGI [51]: > 100 µM
TGI [16]: > 100 µM
TGI [52]: > 100 µM
TGI [17]: > 100 µM
TGI [53]: > 100000 nM
TGI [18]: > 100 µM
TGI [19]: > 100 µM
TGI [54]: 55.7 µM
TGI [20]: > 100 µM
TGI [21]: > 100 µM
TGI [22]: > 100 µM
TGI [23]: > 100 µM
TGI [55]: > 100000 nM
TGI [24]: > 100 µM
TGI [25]: > 100 µM
TGI [26]: > 100 µM
TGI [28]: > 100 µM
TGI [29]: > 100 µM
TGI [31]: 77.4 µM
TGI [32]: > 100 µM
TGI [34]: > 100 µM
TGI [36]: > 100 µM
TGI [37]: > 100 µM
TGI [56]: > 100 µM
TGI [38]: > 100 µM
TGI [39]: > 100 µM
TGI [41]: > 100 µM
TGI [42]: > 100 µM
TGI [43]: > 100 µM
TGI [57]: > 100000 nM
TGI [45]: > 100 µM

CSC(=Nc1ccccc1)/N=C(\SCc1ccccc1)N(C)C
TGI [1]: 2.54 µM
TGI [2]: 1.05 µM
TGI [3]: 2.73 µM
TGI [4]: 2480 nM
TGI [47]: 3.23 µM
TGI [58]: > 100 µM
TGI [5]: 2.66 µM
TGI [6]: 2.63 µM
TGI [59]: 2860 nM
TGI [7]: 2.65 µM
TGI [8]: 1.83 µM
TGI [9]: 1.79 µM
TGI [10]: 3.32 µM
TGI [11]: 3.25 µM
TGI [48]: 2920 nM
TGI [12]: 1.78 µM
TGI [13]: 6.69 µM
TGI [49]: 3.57 µM
TGI [14]: > 100 µM
TGI [50]: 2570 nM
TGI [60]: 2130 nM
TGI [15]: 2890 nM
TGI [51]: > 100 µM
TGI [61]: 1190 nM
TGI [16]: 2.1 µM
TGI [52]: 3.44 µM
TGI [62]: 2390 nM
TGI [53]: 2760 nM
TGI [18]: 1.87 µM
TGI [19]: 2.12 µM
TGI [54]: 0.54 µM
TGI [20]: 3.33 µM
TGI [21]: 1.58 µM
TGI [22]: 4.63 µM
TGI [63]: 1970 nM
TGI [23]: 3.12 µM
TGI [64]: 2030 nM
TGI [55]: 2840 nM
TGI [24]: 0.691 µM
TGI [25]: 3.77 µM
TGI [26]: 2.68 µM
TGI [27]: 2420 nM
TGI [28]: 2.82 µM
TGI [29]: 2.45 µM
TGI [30]: 2380 nM
TGI [31]: 1.69 µM
TGI [65]: 2480 nM
TGI [32]: 4.16 µM
TGI [33]: 2100 nM
TGI [66]: 2550 nM
TGI [35]: 3.36 µM
TGI [36]: 2.3 µM
TGI [37]: 3.22 µM
TGI [56]: 5.27 µM
TGI [67]: 3.1 µM
TGI [38]: 2.39 µM
TGI [68]: 4.17 µM
TGI [39]: 1.79 µM
TGI [40]: 2790 nM
TGI [41]: > 100 µM
TGI [42]: 0.383 µM
TGI [69]: 3.77 µM
TGI [43]: 2.57 µM
TGI [44]: 2430 nM
TGI [57]: 1380 nM
TGI [45]: 3.31 µM
